Source: US20080306094A1 (priority 2005, published 2008)
Where two headings read alike, the source gives them in different places.

Tests used:
HUVEC = HUVEC assay, endothelial cell proliferation; assay type: cell-based; details: Homo sapiens
Calu-6 tumour xenograft = Calu-6 tumour xenograft in vivo solid tumour model; details: once-daily oral, 28 days

## COc1cc2c(Oc3ccc4[nH]c(C)cc4c3F)ncnc2cc1OCCCN1CCCC1 [AZD2171, 4-(4-fluoro-2-methyl-1H-indol-5-yloxy)-6-methoxy-7-(3-(pyrrolidin-1-yl)propoxy)quinazoline]
HUVEC; VEGF-stimulated, read-out: IC50, VEGF-stimulated endothelial cell proliferation
  IC50: 0.4 ± 0.2 nM
HUVEC; basal, read-out: IC50, basal endothelial cell proliferation
  IC50: > 500 nM
Calu-6 tumour xenograft; 1.5 mg/kg/day, P<0.01 one-tailed t test
  inhibition of growth of Calu-6 tumour xenograft: 49%
Calu-6 tumour xenograft; 3 mg/kg/day, P<0.0001 one-tailed t test
  inhibition of growth of Calu-6 tumour xenograft: 69%
Calu-6 tumour xenograft; 6 mg/kg/day, P<0.0001 one-tailed t test
  inhibition of growth of Calu-6 tumour xenograft: 91%
